{
  "source": "patent US20110262425A1",
  "about": "“THERAPEUTIC AGENT FOR MLL LEUKEMIA AND MOZ LEUKEMIA OF WHICH MOLECULAR TARGET IS M-CSF RECEPTOR, AND USE THEREOF” (NATIONAL CANCER CENTER, priority 2007, published 2011)",
  "format_in_all_cases": "in vivo",
  "key": {"M-CSFR-expressing cells": {"test_system": "M-CSFR-expressing cells", "test": "Ablation of M-CSFR-expressing cells by AP20187 in MOZ-TIF2-induced AML mice (FKBP-Fas suicide gene transgenic BM cells, secondary transplantation)", "conditions": "then 1 mg/kg every three days", "protocol": "FIG. 1 depicts the result of M-CSFR expression in bone marrow cells of MOZ leukemogenesis mice. (A) BM cells from MOZ-TIF2-induced AML mice were analyzed by FACS for expression of GFP and M-CSFR. (B) M-CSFR^high cells and M-CSFR^low/- cells were sorted by flow cytometer. MOZ-TIF2 expression in these cells was investigated by immunoblot analysis using an anti-MOZ antibody. (C, D) Indicated numbers of M-CSFR^high cells (C) and M-CSFR^low/- cells (D) were transplanted into mice irradiated beforehand with a lethal dose of radiation and survival from leukemia onset was investigated. (E) Structure of genes for the M-CSFR promoter, EGFP, the NGFR-FKBP-Fas suicide construct, and activation mechanism of NGFR-FKBP-Fas. In transgenic (Tg) mice, conditional ablation of cells highly expressing M-CSFR can be induced by exposure to an AP20187 dimerizer. (F-I) AML mice were induced by transplantation of BM cells from Tg mice infected with MOZ-TIF2, and 10^5 BM cells from AML Tg mice were secondary transplanted into wild-type mice lethally-irradiated beforehand. The secondary-transplanted mice were exposed to AP20187 seven days after transplantation. Expression of GFP and M-CSFR in BM cells (F, G) and the size of spleens (H) of normal Tg mice (F), and of untreated and AP20187-treated secondary-transplanted mice (G) were analyzed four weeks after transplantation. Leukemia-free survival rate of the untreated and AP20187-treated secondary-transplanted mice were investigated (I).\nIn the transgenic mice, expression levels of endogenous M-CSFR were proportional to those of EGFP and FKBP-Fas (FIG. 1F), and conditional ablation of M-CSFR-expressing cells can be induced by injection of the AP20187 dimerizer (Burnett, S. H. et al., J Leukoc Biol (2004) 75: 612-23). c-KIT^+ BM cells of the transgenic mice were infected with the MOZ-TIF2 retrovirus, and transplanted into lethally-irradiated wild-type mice. These mice developed AML about two months after transplantation, and their BM cells (10^5 cells/mouse) were transplanted into secondary recipient mice. […]"}, "MLL-AF10-induced AML": {"test_system": "MLL-AF10-induced AML", "test": "Effect of Imatinib on MLL-AF10-induced AML in mice", "conditions": "Imatinib 100 mg/kg orally twice a day", "from_the_text": "(§1) FIG. 10 (A-D) BM cells (10^5 cells) from AML mice with MOZ-TIF2 (A), MLL-AF10 (B), or N-MYC (C) were transplanted into irradiated mice. […] (A-C) show the results of analyzing leukemia-free survival of the mice. (D) depicts the photograph showing the result of analyzing spleen sizes of the MOZ-TIF2-introduced mice three weeks after transplantation."}, "MOZ-TIF2-induced AML": {"test_system": "MOZ-TIF2-induced AML", "test": "Effect of Imatinib on MOZ-TIF2-induced AML in mice", "conditions": "Imatinib 100 mg/kg orally twice a day", "from_the_text": "as §1"}, "N-MYC-induced AML": {"test_system": "N-MYC-induced AML", "test": "Effect of Imatinib on N-MYC-induced AML in mice", "conditions": "Imatinib 100 mg/kg orally twice a day", "from_the_text": "as §1"}},
  "note": "“Also recorded” adds a separate entry of the source. Where a name gives a salt, the structure may show the parent alone.",
  "data": [
    {"smiles": "CC[C@H](C(=O)N1CCCC[C@H]1C(=O)O[C@H](CCc1ccc(OC)c(OC)c1)c1cccc(OCC(=O)NCC(CNC(=O)COc2cccc([C@@H](CCc3ccc(OC)c(OC)c3)OC(=O)[C@@H]3CCCCN3C(=O)[C@@H](CC)c3cc(OC)c(OC)c(OC)c3)c2)CN(C)C)c1)c1cc(OC)c(OC)c(OC)c1", "note": "[AP20187]", "values": [
      {"measurement": "development of AML (leukemia-free survival)", "setting": "M-CSFR-expressing cells; AP20187 10 mg/kg i.v. daily for 5 days, 5-6 weeks after transplantation", "result": "suppressed; also recorded: none of the AP20187-treated mice, developed AML"},
      {"measurement": "M-CSFR^high cells in BM", "setting": "M-CSFR-expressing cells; AP20187 10 mg/kg intravenously daily for 5 days, from seven days after transplantation, three weeks after transplantation", "result": "neither M-CSFR^high cells nor splenomegaly were detected"},
      {"measurement": "splenomegaly", "setting": "M-CSFR-expressing cells; AP20187 10 mg/kg intravenously daily for 5 days, three weeks after transplantation", "result": "suppressed; also recorded: neither M-CSFR^high cells nor splenomegaly were detected"}
    ]},
    {"smiles": "Cc1ccc(NC(=O)c2ccc(CN3CCN(C)CC3)cc2)cc1Nc1nccc(-c2cccnc2)n1", "note": "[Imatinib, Imatinib mesylate]", "values": [
      {"measurement": "onset of AML (leukemia-free survival)", "setting": "MLL-AF10-induced AML", "result": "slowed onsets of AML; also recorded: delaying the leukemia onset"},
      {"measurement": "MOZ-TIF2-induced splenomegaly", "setting": "MOZ-TIF2-induced AML; three weeks after transplantation", "result": "inhibited"},
      {"measurement": "onset of AML (leukemia-free survival)", "setting": "MOZ-TIF2-induced AML; MOZ-TIF2", "result": "slowed onsets of AML; also recorded: delaying the leukemia onset"},
      {"measurement": "progress of AML (leukemia-free survival)", "setting": "N-MYC-induced AML", "result": "did not affect the progress"}
    ]}
  ]
}
